Measured values: US10793575B2, “Oxoisoquinoline derivatives” (CARNA BIOSCIENCES, INC., priority 2016, dated 2020)

Experiments:
[1] = target: wild type BTK [BTK(WT)] (Homo sapiens (Human), UniProt Q06187); assay: C481S Mutant BTK Inhibitory Activity Test, wild type BTK (mobility shift assay); assay type: biochemical; conditions: 120 μM ATP
Description: (§1) The kinase activity was measured using QuickScout Screening Assist (trademark) MSA (commercially available kit manufactured by Carna Biosciences, Inc.) by mobility shift assay (MSA) method. The substrate of the kinase reaction was an FITC-labeled SRCtide peptide included in the kit. […] The 10 mM solution of the test compound in DMSO was further diluted with DMSO to 10 levels of the concentration (0.00003 mM, 0.0001 mM, 0.0003 mM, 0.001 mM, 0.003 mM, 0.01 mM, 0.03 mM, 0.1 mM, 0.3 mM, 1 mM), each of which was subjected to a 25-fold dilution with the assay buffer to obtain the drug solutions (4% DMSO solutions).
(§2) 5 μL of the drug solution or a control solution (4% DMSO-assay buffer), 5 μL of the substrate mixture solution, and 10 μL of the enzyme solution were mixed in the wells of a polypropylene 384-well plate and allowed to react at room temperature for 1 hour, and then quenched by adding 60 μL of the termination buffer included in the kit. Subsequently, the quantities of the substrates (S) and the phosphorylated substrate (P) in the reaction solution were measured using LabChip EZ Reader II system (manufactured by Caliper Life Sciences) according to the protocol of the assay kit.
(§3) The heights of the peaks of the isolated substrate and the phosphorylated substrate were represented as S and P, respectively, and a blank which contained the assay buffer instead of the enzyme solution was also measured.
(§4) The inhibition rate (%) of the test compound was calculated according to the following equation; Inhibition rate (%)=(1−(C−A)/(B−A))×100 • wherein, A, B and C represent P/(P+S) of the blank well, P/(P+S) of the control well and P/(P+S) of the compound-containing well, respectively.
(§5) The IC50 value was calculated via a regression analysis of the inhibition rate (%) and the test compound concentration (logarithmic value).

[2] = target: C481S mutant BTK [BTK(C481S)] (Homo sapiens (Human), UniProt Q06187, C481S); assay: C481S Mutant BTK Inhibitory Activity Test (mobility shift assay); assay type: biochemical; conditions: for IC50: C481S mutant BTK, 100 μM ATP; for C481S mutation-resistance: IC50[BTK(C481S)]/IC50[BTK(WT)]
C481S mutant BTK [BTK(C481S)], sequence (Q06187 whole entry C481S): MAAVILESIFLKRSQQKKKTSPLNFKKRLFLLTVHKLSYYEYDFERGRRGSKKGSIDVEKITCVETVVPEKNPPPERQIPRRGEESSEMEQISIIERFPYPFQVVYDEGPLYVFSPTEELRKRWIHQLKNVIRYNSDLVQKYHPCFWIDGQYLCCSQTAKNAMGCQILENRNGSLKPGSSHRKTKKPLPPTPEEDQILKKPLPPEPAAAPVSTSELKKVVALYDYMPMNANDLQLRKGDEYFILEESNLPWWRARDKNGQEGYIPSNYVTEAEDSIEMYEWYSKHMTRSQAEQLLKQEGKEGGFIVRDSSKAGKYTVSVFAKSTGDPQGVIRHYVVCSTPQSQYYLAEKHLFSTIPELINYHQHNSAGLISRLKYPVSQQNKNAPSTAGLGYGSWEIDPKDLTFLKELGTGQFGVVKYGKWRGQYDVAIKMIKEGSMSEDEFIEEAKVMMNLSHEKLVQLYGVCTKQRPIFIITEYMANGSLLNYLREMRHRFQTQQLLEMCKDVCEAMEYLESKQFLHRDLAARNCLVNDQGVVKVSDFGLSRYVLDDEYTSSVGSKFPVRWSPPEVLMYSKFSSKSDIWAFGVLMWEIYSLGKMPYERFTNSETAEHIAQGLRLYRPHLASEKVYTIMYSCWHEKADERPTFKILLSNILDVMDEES
Description: as §1, §2, §3, §4, §5

[3] = tested on: OCI-Ly10 cells; assay: Proliferation-Inhibitory Test Against Diffuse Large-Cell B-Cell Lymphoma OCI-Ly10 Strain; assay type: cell-based; conditions: Homo sapiens, 96 hours, alamarBlue
Description: OCI-Ly10 cells were cultured in IMDM medium (Iscove's Modified Dulbecco's Medium, Manufactured by Thermo Fisher Scientific Inc., hereinafter “medium”) containing 20% Fetal bovine serum and 1% penicillin-streptomycin (Nacalai Tesque, Inc.) in a 5% CO2 incubator. OCI-Ly10 cells were seeded to 96-well plate (20000 cells/well), compounds diluted with medium were added with final concentrations of 0.9 nM to 30000 nM (Final DMSO concentration, 0.3%), incubated for 96 hours and alamorBlue reagent (Thermo Fisher Scientific Inc.) was added.

[4] = target: dephosphorylated BTK (Homo sapiens (Human), UniProt Q06187); assay: BTK Activity Inhibition Test (mobility shift assay); assay type: biochemical; conditions: 200 μM ATP, read-out: Inhibitory Activity on BTK
dephosphorylated BTK, sequence (Q06187 whole entry): as the sequence (Q06187 whole entry C481S) above, with S481C counted along it
Description: Dephosphorylated BTK was obtained by adding λ protein phosphatase (manufactured by New England BioLabs Inc., Code No. P0753S) and MnCl2 at 10 U/μg and 2 mM, respectively, to biotinylated BTK protein BTN-BTK (Manufactured by Carna Biosciences, Inc.) enzyme solution, reacting the mixture at 4° C. overnight, and removing of λ protein phosphatase by anti […]-tag antibody agarose gel chromatography, followed by buffer exchange using a 10DG Desalting Column.
The kinase activity was measured using QuickScout Screening Assist (trade mark) MSA (commercially available kit manufactured by Carna Biosciences, Inc.) by mobility shift assay (MSA) method. The substrate of the kinase reaction was an FITC-labeled SRCtide peptide included in the kit. An assay buffer [20 mM HEPES, 0.01% Triton X-100 (Trade mark), 2 mM dithiothreitol, pH 7.5] was used and adjusted at 4 μM substrate, 20 mM MgCl2 and 200 μm ATP to obtain a substrate mixture solution. The enzyme solution was also prepared by diluting the dephosphorylated BTK to 0.46 nM using the assay buffer. The 10 mM solution of the test compound in DMSO was further diluted with DMSO to 10 levels of the concentration (0.00003 mM, 0.0001 mM, 0.0003 mM, 0.001 mM, 0.003 mM, 0.01 mM, 0.03 mM, 0.1 mM, 0.3 mM, 1 mM), each of which was subjected to a 25-fold dilution with the assay buffer to obtain the drug solutions (4% DMSO solutions). 5 μL of the drug solution or a control solution (4% DMSO-assay buffer), 5 μL of the substrate mixture solution, and 10 μL of the enzyme solution were mixed in the wells of a polypropylene 384-well plate and allowed to react at room temperature for 2 hours, and then quenched by adding 60 μL of the termination buffer included in the kit. Subsequently, the quantities of the substrates (S) and the phosphorylated substrate (P) in the reaction solution were measured using LabChip EZ Reader II system (manufactured by Caliper Life Sciences) according to the protocol of the assay kit.
as §3, §4, §5

wild type BTK [BTK(WT)], sequence (Q06187 whole entry): as the sequence (Q06187 whole entry C481S) above, with S481C counted along it

Compound	IC50 [1] [nM]	IC50 [2] [nM]	C481S mutation-resistance [2]	IC50 [3] [nM]	IC50 [4] [nM]
Nc1nc(-c2cccc(-n3ccc4cc(C5CC5)cc(F)c4c3=O)c2CO)c2cc(-c3ccc(F)cc3F)[nH]c2n1 [Example 35, 2-{3-[2-amino-6-(2,4-difluorophenyl)-7H-pyrrolo[2,3-d]pyrimidin-4-yl]-2-(hydroxymethyl)phenyl}-6-cyclopropyl-8-fluoroisoquinolin-1(2H)-one]	–	–	–	428	< 10
Nc1nc(-c2cccc(-n3ccc4cc(C5CC5)cc(F)c4c3=O)c2CO)c2cc(-c3cccc(F)c3)[nH]c2n1 [Example 29, 2-{3-[2-amino-6-(3-fluorophenyl)-7H-pyrrolo[2,3-d]pyrimidin-4-yl]-2-(hydroxymethyl)phenyl}-6-cyclopropyl-8-fluoroisoquinolin-1(2H)-one]	–	–	–	332	< 10
Nc1nc(-c2cccc(-n3ccc4cc(C5CC5)cc(F)c4c3=O)c2CO)c2cc(-c3ccc(OC(F)(F)F)cc3)[nH]c2n1 [Example 38, 2-(3-{2-amino-6-[4-(trifluoromethoxy)phenyl]-7H-pyrrolo[2,3-d]pyrimidin-4-yl}-2-(hydroxymethyl)phenyl)-6-cyclopropyl-8-fluoroisoquinolin-1(2H)-one]	–	–	–	366	10 to 100
Cn1cc(-c2nc3c(-c4cccc(-n5ccc6cc(C7CC7)cc(F)c6c5=O)c4CO)nc(N)nc3[nH]2)cn1 [Example 31, 2-{3-[2-amino-8-(1-methyl-1H-pyrazol-4-yl)-9H-purin-6-yl]-2-(hydroxymethyl)phenyl}-6-cyclopropyl-8-fluoroisoquinolin-1(2H)-one]	–	–	–	45	< 10
Nc1nc(-c2cccc(-n3ccc4cc(C5CC5)cc(F)c4c3=O)c2CO)c2cc(-c3ccc(F)c(F)c3)[nH]c2n1 [Example 36, 2-{3-[2-amino-6-(3,4-difluorophenyl)-7H-pyrrolo[2,3-d]pyrimidin-4-yl]-2-(hydroxymethyl)phenyl}-6-cyclopropyl-8-fluoroisoquinolin-1(2H)-one]	–	–	–	450	< 10
Nc1nc(-c2cccc(-n3ccc4cc(C5CC5)cc(F)c4c3=O)c2CO)c2cc(-c3ccc(C(F)(F)F)cc3)[nH]c2n1 [Example 37, 2-(3-{2-amino-6-[4-(trifluoromethyl)phenyl]-7H-pyrrolo[2,3-d]pyrimidin-4-yl}-2-(hydroxymethyl)phenyl)-6-cyclopropyl-8-fluoroisoquinolin-1(2H)-one]	–	–	–	499	< 10
Nc1nc(-c2cccc(-n3ccc4cc(C5CC5)cc(F)c4c3=O)c2CO)c2cc(-c3ccc(F)cc3)[nH]c2n1 [Example 34, 2-{3-[2-amino-6-(4-fluorophenyl)-7H-pyrrolo[2,3-d]pyrimidin-4-yl]-2-(hydroxymethyl)phenyl}-6-cyclopropyl-8-fluoroisoquinolin-1(2H)-one]	–	–	–	102	< 10
Nc1nc(-c2cccc(-n3ccc4cc(C5CC5)cc(F)c4c3=O)c2CO)c2cc(-c3ccccc3F)[nH]c2n1 [Example 33, 2-{3-[2-amino-6-(2-fluorophenyl)-7H-pyrrolo[2,3-d]pyrimidin-4-yl]-2-(hydroxymethyl)phenyl}-6-cyclopropyl-8-fluoroisoquinolin-1(2H)-one]	–	–	–	197	< 10
NCc1cc2c(-c3cccc(-n4ccc5cc(C6CC6)cc(F)c5c4=O)c3CO)nc(N)nc2[nH]1 [Example 39, 2-{3-[2-amino-6-(aminomethyl)-7H-pyrrolo[2,3-d]pyrimidin-4-yl]-2-(hydroxymethyl)phenyl}-6-cyclopropyl-8-fluoroisoquinolin-1(2H)-one]	–	–	–	1050	10 to 100

Second part, the compound after the results:

IC50 [1] [nM]	IC50 [2] [nM]	C481S mutation-resistance [2]	IC50 [3] [nM]	IC50 [4] [nM]	Compound
0.36	0.57	1.6	5	–	Nc1nc(-c2cccc(-n3ccc4cc(C5CC5)cc(F)c4c3=O)c2CO)c2cc(-c3ccc(CN4CCN(CCO)CC4)cc3)[nH]c2n1 [Example 61, 2-{3-[2-amino-6-(4-{[4-(2-hydroxyethyl)piperazin-1-yl]methyl}phenyl)-7H-pyrrolo[2,3-d]pyrimidin-4-yl]-2-(hydroxymethyl)phenyl}-6-cyclopropyl-8-fluoroisoquinolin-1(2H)-one]
0.51	0.9	1.8	25	–	Nc1nc(-c2cccc(-n3ccc4cc(C5CC5)cc(F)c4c3=O)c2CO)c2cc(-c3ccc(CN4CCCC4)cc3)[nH]c2n1 [Example 53, 2-(3-{2-amino-6-[4-(pyrrolidin-1-ylmethyl)phenyl]-7H-pyrrolo[2,3-d]pyrimidin-4-yl}-2-(hydroxymethyl)phenyl)-6-cyclopropyl-8-fluoroisoquinolin-1(2H)-one]
0.41	0.99	2.4	–	–	Nc1nc(-c2cccc(-n3ccc4cc(C5CC5)cc(F)c4c3=O)c2CO)c2cc(C3=CCNCC3)[nH]c2n1 [Example 93, 2-{3-[2-amino-6-(1,2,3,6-tetrahydropyridin-4-yl)-7H-pyrrolo[2,3-d]pyrimidin-4-yl]-2-(hydroxymethyl)phenyl}-6-cyclopropyl-8-fluoroisoquinolin-1(2H)-one]
0.41	0.82	2	6	–	CCC(=O)N1CC=C(c2cc3c(-c4cccc(-n5ccc6cc(C7CC7)cc(F)c6c5=O)c4CO)nc(N)nc3[nH]2)CC1 [Example 84, 2-{3-[2-amino-6-(1-propionyl-1,2,3,6-tetrahydropyridin-4-yl)-7H-pyrrolo[2,3-d]pyrimidin-4-yl]-2-(hydroxymethyl)phenyl}-6-cyclopropyl-8-fluoroisoquinolin-1(2H)-one]
–	–	–	1330	< 10	Nc1nc(-c2cccc(-n3ccc4cc(C5CC5)cc(F)c4c3=O)c2CO)c2cc(-c3cccc(C(F)(F)F)c3)[nH]c2n1 [Example 40, 2-(3-{2-amino-6-[3-(trifluoromethyl)phenyl]-7H-pyrrolo[2,3-d]pyrimidin-4-yl}-2-(hydroxymethyl)phenyl)-6-cyclopropyl-8-fluoroisoquinolin-1(2H)-one]
0.52	0.95	1.8	–	–	CN(C)C(=O)N1CC=C(c2cc3c(-c4cccc(-n5ccc6cc(C7CC7)cc(F)c6c5=O)c4CO)nc(N)nc3[nH]2)CC1 [Example 87, 4-{2-amino-4-[3-(6-cyclopropyl-8-fluoro-1-oxoisoquinolin-2(1H)-yl)-2-(hydroxymethyl)phenyl]-7H-pyrrolo[2,3-d]pyrimidin-6-yl}-N,N-dimethyl-5,6-dihydropyridine-1(2H)-carboxamide]
0.39	0.58	1.5	–	–	CN1CCN(C(=O)N2CC=C(c3cc4c(-c5cccc(-n6ccc7cc(C8CC8)cc(F)c7c6=O)c5CO)nc(N)nc4[nH]3)CC2)CC1 [Example 71, 2-(3-{2-amino-6-[1-(4-methylpiperazine-1-carbonyl)-1,2,3,6-tetrahydropyridin-4-yl]-7H-pyrrolo[2,3-d]pyrimidin-4-yl}-2-(hydroxymethyl)phenyl)-6-cyclopropyl-8-fluoroisoquinolin-1(2H)-one]
